Reference: patent US20240325493A1, “REGULATOR OF TUMOR CELL FUNCTIONS AND USES THEREOF” (Washington University, priority 2023, published 2024)

Legend:
[1] = test system: Zbtb46 in bone marrow-derived dendritic cells (BMDC); experiment: Zbtb46 mRNA expression in bone marrow-derived dendritic cells treated with tumor-derived factors; assay type: cell-based, mouse; details: in vitro, 24 hours, vs PBS
Procedure: FIG. 13B is a graph of Zbtb46 mRNA expression in bone marrow-derived dendritic cells (BMDC) treated with PBS, prostaglandin E2 (PGE2), vascular endothelial growth factor (VEGF), or retinoic acid (RA) for 24 hours. n≥3/group. One-way ANOVA with Dunnett's test.
(§1) Quantitative real-time reverse transcription PCR (qRT-PCR) was performed. cDNA was prepared with qScript™ CDNA SuperMix (Cat: 101414-106, VWR) according to the manufacturer's protocol. Gene expression was measured by quantitative real-time RT-PCR using primers.

[2] = test system: Zbtb46 in MCEC (mouse cardiac endothelial cells); experiment: Zbtb46 mRNA expression in MCEC cells treated with tumor-derived factors; assay type: cell-based; details: in vitro, 24 hours
Procedure: FIG. 13A is a set of graphs of Zbtb46 mRNA expression in MCEC cells, with loading control b-Actin (left) and Gapdh (right), treated with PBS or tumor-conditioned media (TCM) for 24 hours. n≥3/group. One-way ANOVA with Dunnett's test.
as §1

Row | Compound | Zbtb46 expression in DC [1] | Zbtb46 expression in EC [2]
1 | CCCCC[C@H](O)/C=C/[C@H]1[C@H](O)CC(=O)[C@@H]1C/C=C\CCCC(=O)O [PGE2, prostaglandin E2] | downregulated | downregulated
2 | VEGF | downregulated | downregulated
